Measured values from patent US5446035A, “20-methyl-substituted vitamin D derivatives” (Schering Aktiengesellschaft, priority 1991, dated 1995).

How the values were obtained:
HL-60 cells = experiment: induction of HL-60 cell differentiation to macrophages (NBT reduction); assay type: cell-based, human; details: 96 hours incubation, formazan at 650 nm
Experimental: It is known in the literature (Mangelsdorf, D. J. et al., J. Cell. Biol. 98: 391-398 (1984)) that the treatment of human leukemia cells (promyelocyte cell line HL-60, available, e.g., from the ATCC, Rockville, Md.) in vitro with calcitriol induces the differentiation of the cells to macrophages.
HL-60 cells are cultivated in tissue culture medium (RPMI - 10% fetal calf serum) at 37° C. in an atmosphere of 5% CO2 in air.
For substance testing, the cells are centrifuged and 2.8×10^5 cells/ml are suspended in phenol red-free tissue culture medium. The test substances are dissolved in ethanol and diluted with tissue culture medium without phenol red to achieve the desired concentration. The diluted test substances are mixed with the cell suspension in a ratio of 1:10 and 100 μl each of this cell suspension mixed with substance is pipetted in a depression of a 96-hole plate. As a control, a cell suspension is prepared similarly, but only with the solvent. […]
To dissolve the formed intracellular formazan crystals, 100 μl of potassium hydroxide (2 mol/l) and 100 μl of dimethylsulfoxide are pipetted into each depression and ultrasonically irradiated for 1 minute. The concentration of formazan is spectrophotometrically measured at 650 nm.
As a measurement for the differentiation induction of HL 60 cells to macrophages, the concentration of formed formazan is determined. […]

[1] = test system: human peripheral blood mononuclear cells; experiment: PHA-stimulated lymphocyte proliferation ([3H]-thymidine incorporation); assay type: cell-based; details: PBMC, PHA 5 μg/well, 96 hours after stimulation, read-out: concentration inhibiting lymphocyte proliferation by 50%
Experimental: At the time of seeding, cells were treated with phytohemagglutinin (PHA) 5 μg/well. The test compound was added at the same time as PHA in various concentration. Lymphocyte proliferation was determined 96 hours after stimulation by incorporation of [^3 H]-thymidine. For that, [^3 H]-thymidine (0.2 μCi/well) was added for the last 6 hours of culture, then medium and cells were filtrated through a glass fiber filter. Radioactivity of the filters were determined in a β-counter.

[2] = test system: IL-2 secretion, human peripheral blood mononuclear cells; experiment: IL-2 secretion by PHA-stimulated lymphocytes (ELISA); assay type: cell-based; details: compared with calcitriol; PHA 20 μg/well, 24 hours
Experimental: For determination of IL-2 secretion, human peripheral blood mononuclear cells were prepared as above, seeded at a density of 2×10^6 cells/well×200 μl into 24-well-plates and cultured in RPMI 1640 in the presence of 2% fetal calf serum. At the time of seeding, PHA (20 μg/well) and the test compound was added. 24 hours after stimulation, cell cultures were harvested, medium separated from cells by centrifugation, and IL-2 concentration in the medium determined by an ELISA based on a polyclonal antibody IL-2.

Compound | relative activity in inducing differentiation: ED50 test substance/ED50 calcitriol (HL-60 cells) | IC50 [1] | concentration range at which inhibition of IL-2 secretion starts [2]
C=C1/C(=C\C=C2/CCC[C@]3(C)[C@@H](C(C)(C)/C=C/C=C/C(C)(C)O)CC[C@@H]23)C[C@@H](O)C[C@@H]1O [1(S),3(R)-Dihydroxy-20-(5-hydroxy-5-methyl-hexa-1E,3E-dien-1-yl)-20-methyl-9,10-secopregna-5Z,7E,10(19)-triene] | ~0.001 |  | 
C=C1/C(=C\C=C2/CCC[C@]3(C)[C@@H]([C@H](C)CCCC(C)(C)O)CC[C@@H]23)C[C@@H](O)C[C@@H]1O [1,25-dihydroxy-vitamin D3, 1α,25-dihydroxycholecalciferol, reference compound] |  | 0.44 nM | 
C=C1/C(=C\C=C2/CCC[C@]3(C)[C@@H](C(C)(C)CC=CC(C)(C)O)CC[C@@H]23)C[C@@H](O)C[C@@H]1O [ZK 157202, 1α,25-dihydroxy-20-methyl-23,24-dehydrovitamin D3] |  | 0.013 nM | about the same as for calcitriol
